# Experimental data as given in patent EP4803512A1, “COMPOUND CAPABLE OF INHIBITING CONNEXIN-ASSOCIATED KINASE 1, PREPARATION, AND USE THEREOF” (Xizang Haisco Pharmaceutical Co., Ltd., priority 2023, dated 2025).
# Key:
# AAK1 = biological target: T1, AAK1 (Homo sapiens, UniProt Q2M2I8); experiment: In vitro AAK1 enzyme activity assay (ADP-Glo); type: biochemical; details: inhibitory activity against AAK1
# T1 construct: purchased Signalchem A01-11G-10
# Procedure: Compound stock solution (concentration: 10 mM, dissolved in DMSO) was diluted with DMSO to 0.2 mM and then diluted with DMSO in 5-fold gradient to obtain compound solutions with 10 concentrations. Subsequently, the compound solutions with different concentrations were diluted 50-fold in 1× kinase reaction buffer (containing 40 mM Tris, 20 mM MgCl2, 0.1% BSA and 0.5 mM DTT) for later use. AAK1 (Signalchem, Cat# A01-11G-10) was diluted with 1× kinase reaction buffer to 2-fold the final concentration (final concentrations: 30 nM and 28 nM). AAK1 was added to a 384-well white plate at 2 µL/well, and the compounds were then added at 1 µL/well. The plate was sealed with a plate-sealing film, centrifuged at 1000 rpm for 30 seconds and then placed at room temperature for 10 minutes. […] The RLU (Relative luminescence unit) signal values were read using a Biotek multimode microplate reader, and the percent inhibition was calculated according to the following formula: [1-(LUM compound-LUM positive control) / (LUM negative control-LUM positive control)] × 100. IC50 values were calculated using Graphpad 7.0 software using a four-parameter non-linear fit equation. […]
# hERG potassium channel = biological target: T2, hERG potassium channel (Homo sapiens, UniProt Q12809); experiment: hERG potassium channel activity assay, manual whole-cell patch clamp; type: cell-based; details: IC50, inhibition of hERG potassium channel current, CHO cells stably expressing hERG
# T2 construct: expressed in transfected cells
# T2 sequence (Q12809 whole entry): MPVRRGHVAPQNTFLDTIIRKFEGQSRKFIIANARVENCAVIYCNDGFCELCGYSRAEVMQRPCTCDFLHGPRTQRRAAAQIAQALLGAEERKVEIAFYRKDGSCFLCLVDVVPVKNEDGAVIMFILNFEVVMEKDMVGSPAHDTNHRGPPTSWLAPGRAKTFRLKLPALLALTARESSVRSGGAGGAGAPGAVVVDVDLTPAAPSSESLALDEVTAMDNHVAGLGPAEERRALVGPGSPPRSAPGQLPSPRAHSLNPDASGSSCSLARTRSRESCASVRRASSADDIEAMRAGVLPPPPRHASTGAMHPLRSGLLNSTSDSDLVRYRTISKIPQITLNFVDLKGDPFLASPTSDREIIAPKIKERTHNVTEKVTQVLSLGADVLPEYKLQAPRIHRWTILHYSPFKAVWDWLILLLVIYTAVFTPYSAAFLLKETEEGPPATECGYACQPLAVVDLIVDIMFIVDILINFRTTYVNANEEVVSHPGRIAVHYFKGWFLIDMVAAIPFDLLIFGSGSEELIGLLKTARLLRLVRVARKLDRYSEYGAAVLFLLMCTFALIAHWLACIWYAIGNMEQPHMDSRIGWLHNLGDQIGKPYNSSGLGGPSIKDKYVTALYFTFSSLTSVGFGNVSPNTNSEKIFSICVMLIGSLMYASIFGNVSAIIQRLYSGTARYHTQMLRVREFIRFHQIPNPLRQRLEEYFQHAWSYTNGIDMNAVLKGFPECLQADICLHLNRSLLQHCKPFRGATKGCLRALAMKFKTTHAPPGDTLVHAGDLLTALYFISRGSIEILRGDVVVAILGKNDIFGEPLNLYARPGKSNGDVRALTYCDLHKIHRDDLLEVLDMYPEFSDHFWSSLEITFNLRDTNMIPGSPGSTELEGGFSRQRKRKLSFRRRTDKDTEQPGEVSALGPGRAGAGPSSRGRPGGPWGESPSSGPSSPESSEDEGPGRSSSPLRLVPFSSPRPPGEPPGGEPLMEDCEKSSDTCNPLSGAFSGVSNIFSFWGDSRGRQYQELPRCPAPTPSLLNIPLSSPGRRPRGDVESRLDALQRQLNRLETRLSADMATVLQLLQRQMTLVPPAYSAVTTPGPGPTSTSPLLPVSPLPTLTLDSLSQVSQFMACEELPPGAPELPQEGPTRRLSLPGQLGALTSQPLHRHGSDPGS
# Source text: 2.1 Experimental preparation: Experimental platform: manual electrophysiological patch-clamp system; Cell line: Chinese hamster ovary (CHO) cell line stably expressing hERG potassium channel.
# 2.2. Experimental method: In Chinese Hamster Ovary (CHO) cells stably expressing hERG potassium channel, the whole-cell patch-clamp technique was used to record hERG potassium channel current at room temperature. The glass microelectrodes were pulled from glass electrode blanks (BF150-86-10, Sutter) by a glass microelectrode puller. The tip resistance of the microelectrodes after being filled with intrapipette solution was about 2-5 MΩ. The glass microelectrodes were connected to the patch-clamp amplifier by inserting them into an amplifier probe. The clamping voltage and data recording were controlled and recorded by the pClamp 10 software through a computer, with a sampling frequency of 10 kHz and a filtering frequency of 2 kHz. After the whole cell records were obtained, the cells were clamped at -80 mV, and the step voltage that induced the hERG potassium current (I hERG) was depolarised from -80 mV to +20 mV for 2 s, then repolarised to -50 mV, and returned to -80 mV after 1 s. […]
# Compound IC50 was calculated using GraphPad Prism 5 software by fitting according to the following equation: Y = Bottom + (Top−Bottom)/(1+10^(∧)((LogIC50−X)×HillSlope)) [formula] […]
# [1] = Pharmacokinetic assay in mice; type: in vivo, ICR mice; details: plasma
# Procedure: 3.1 Experimental animals: Male ICR mice, 20-25 g, 6 mice/compound, purchased from Chengdu Dossy Experimental Animals Co., Ltd.
# 3.2 Experimental design: on the day of the experiment, the ICR mice were randomly grouped according to their body weights. The animals were fasted with water available for 12-14 h one day before the administration, and were fed 4 h after the administration. Table 3 Administration information
# vehicle for intravenous administration: 5%DMA+5%HS-15+90%NS; vehicle for intragastric administration: 0.5% MC; before and after administration, 0.06 mL of blood was taken from the orbit under isoflurane anaesthesia and placed in an EDTAK2 centrifuge tube. The tube was centrifuged at 5000 rpm at 4°C for 10 min, and plasma was collected. The blood sampling time points for both the intravenous administration group and intragastric administration group were 0, 5 min, 15 min, 30 min, 1 h, 2 h, 4 h, 7 h and 24 h. Before analysis and detection, all samples were stored at -80°C, and the samples were quantitatively analysed by LC-MS/MS. Table 4 Pharmacokinetic parameters of test compounds in plasma of mice
# [2] = Liver microsomal stability assay, rat liver microsomal model; type: in vitro ADME; details: rat liver microsomes, 1 µM, 37°C, NADPH
# Procedure: In this experiment, liver microsomes of five species, including human, monkey, dog, rat and mouse, were used as in vitro models to evaluate the metabolic stability of the test compound.
# At 37°C, 1 µM of the test compound was co-incubated with microsomal protein and coenzyme NADPH. At given time points of the reaction (5 min, 10 min, 20 min, 30 min, and 60 min), the reaction was terminated by adding ice-cold acetonitrile containing an internal standard. The LC-MS/MS method was used to measure the concentration of the test compound in the sample. T1/2 was calculated using the ln value of the percentage of drug remaining in the incubation system and the incubation time. In addition, the intrinsic clearance in liver microsomes CLint(mic) and the intrinsic clearance in liver CLint(Liver) were further calculated. Table 7 Results of test compounds in rat liver microsomal model
# PC12 cells = details: cited from earlier work
# [3] = Pharmacokinetic assay in rats; type: in vivo, SD rats; details: rat, po, plasma, Intragastric administration (5 mg/kg)
# Procedure: 4.1 Experimental animals: Male SD rats, about 220 g, 6-8 weeks old, 6 rats/compound, purchased from Chengdu Dossy Experimental Animals Co., Ltd.
# 4.2 Experimental design: on the day of the experiment, 6 SD rats were randomly grouped according to their body weights. The animals were fasted with water available for 12-14 h one day before the administration, and were fed 4 h after the administration. Table 5 Administration information
# Before and after the administration, 0.1 ml of blood was taken from the orbit under isoflurane anaesthesia and placed in an EDTAK2 centrifuge tube. The tube was centrifuged at 5000 rpm at 4°C for 10 min, and plasma was collected. Blood sampling time points for the intravenous administration group: 0, 5 min, 15 min, 30 min, 1 h, 2 h, 4 h, 6 h, 8 h and 24 h; blood sampling time points for the intragastric administration group: 0, 5 min, 15 min, 30 min, 1 h, 2 h, 4 h, 6 h, 8 h and 24 h. Before analysis and detection, all samples were stored at -80°C.
# [4] = mice; cited from earlier work
# [5] = mice; cited from earlier work; remark: listed apart in the source
# [6] = cited from earlier work
# [7] = cited from earlier work; remark: listed apart in the source
# [8] = Intragastric administration (10 mg/kg), 10 mg/kg
# T1 sequence (Q2M2I8 27-365 limits assumed): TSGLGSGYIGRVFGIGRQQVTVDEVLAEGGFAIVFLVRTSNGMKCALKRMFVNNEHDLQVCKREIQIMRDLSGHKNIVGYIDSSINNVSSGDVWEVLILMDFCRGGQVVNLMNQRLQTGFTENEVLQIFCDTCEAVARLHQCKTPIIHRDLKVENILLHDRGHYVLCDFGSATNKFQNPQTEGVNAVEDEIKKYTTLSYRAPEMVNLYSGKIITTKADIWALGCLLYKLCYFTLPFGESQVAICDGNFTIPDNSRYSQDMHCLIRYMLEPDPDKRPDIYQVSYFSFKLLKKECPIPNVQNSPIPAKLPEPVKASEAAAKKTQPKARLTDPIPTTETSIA
compound,measurement,setting,value
"CC(O)(CO)C[C@](C)(N)COc1ccc(-c2ccnc(C(F)F)c2)nc1C(F)F (single isomer, unassigned) [Compound 1-1]",IC50,AAK1,≤ 0.02 µM
same,IC50,hERG potassium channel,6.73 µM
same,AUC(0-t),[1]; [8],4400 ng·h/mL
same,T1/2,[1]; [8],4.82 h
same,Percentage of drug remaining after 60 min of incubation,[2],93.7%
COC(=O)[C@@]1(O)C[C@H]2O[C@]1(C)n1c3ccccc3c3c4c(c5c6ccccc6n2c5c31)C(=O)NC4 [Compound K252a],ErbB4 accumulation in the plasma membrane or in close proximity to the plasma membrane,PC12 cells,increased
same,ErbB4 expression,PC12 cells,increased
same,neuregulin-1-induced neurite outgrowth,PC12 cells,potentiates
"CC(O)(CO)C[C@](C)(N)COc1ccc(-c2ccnc(C(F)F)c2)nc1C(F)F (single isomer, unassigned) [Compound 1-2]",IC50,AAK1,≤ 0.02 µM
same,IC50,hERG potassium channel,13.7 µM
same,clearance,"[1]; mouse, Intravenous administration (2.5 mg/kg)",57.8 mL/min/kg
same,Vd,"[1]; mouse, Intravenous administration (2.5 mg/kg), read-out: Vdss",10.5 L/kg
same,half-life,"[1]; mouse, iv, 2.5 mg/kg, Intravenous administration (2.5 mg/kg)",2.53 h
same,AUC(0-t),"[1]; mouse, iv, 2.5 mg/kg, Intravenous administration (2.5 mg/kg), read-out: AUC0-t",630 ng·h/mL
same,half-life,"[1]; mouse, po, 10 mg/kg, Intragastric administration (10 mg/kg)",3.09 h
same,AUC(0-t),"[1]; mouse, po, 10 mg/kg, Intragastric administration (10 mg/kg), read-out: AUC0-t",3520 ng·h/mL
same,AUC(0-t),[3],4050 ng·h/mL
same,half-life,[3],4.52 h
same,Percentage of drug remaining after 60 min of incubation,[2],> 99%
COc1ncccc1-c1cnn2ccc(N3CCN(C(=O)OC(C)C)CC3)nc12 [LP-935509],pain responses in phase II of the formalin model,[4],significantly attenuate
same,mechanical allodynia induced by SNL,[5],significantly attenuate
same,pain responses in the mouse chronic constriction injury (CCI) model,[6],significantly attenuate
same,pain responses in the mouse streptozotocin-induced diabetic neuropathy model,[7],significantly attenuate
